From ChEMBL document CHEMBL4823329, “Trisubstituted 1,3,5-Triazines: The First Ligands of the sY12-Binding Pocket on Chemokine CXCL12” (ACS Med Chem Lett, 2021)
pKd: −log10 of the molar value.

biological target: Stromal cell-derived factor 1 (Homo sapiens, UniProt P48061); test: Binding affinity to wild type CXCL12 (unknown origin) by NMR spectroscopy; conditions: not given
Sequence (P48061 whole entry): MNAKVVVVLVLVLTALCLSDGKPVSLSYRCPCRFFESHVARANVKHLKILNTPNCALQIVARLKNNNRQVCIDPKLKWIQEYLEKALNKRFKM

Kd | SMILES
Not Active | O=C(O)CSc1nc(SCC(=O)O)nc(-c2c3ccccc3cc3ccccc23)n1
Nd(Insoluble) | O=C(O)CSc1nc(SCC(=O)O)nc(C2=CCCCC2)n1
Nd(Insoluble) | O=C(O)CSc1nc(SCC(=O)O)nc(-c2ccc(-c3ccccc3)cc2)n1
Nd(Insoluble) | O=C(O)c1ccc(Nc2nc(Nc3ccc(C(=O)O)cc3)nc(-c3ccccc3)n2)cc1
Nd(Insoluble) | O=C(O)CSc1nc(SCC(=O)O)nc(-c2ccc(Oc3ccccc3)cc2)n1
Nd(Insoluble) | O=C(O)CSc1nc(SCC(=O)O)nc(-c2cnc3ccccc3c2)n1
Not Active | O=C(O)CSc1nc(SCC(=O)O)nc(C2C3CC4CC(C3)CC2C4)n1 (stereo unspecified)
Nd(Insoluble) | O=C(O)CSc1nc(SCC(=O)O)nc(-c2ccoc2)n1

same assay, conditions: read-out: Kd

SMILES | pKd
C[N+]1(c2nc(SCC(=O)O)nc(SCC(=O)O)n2)CCOCC1 | 2.52
O=C(O)CSc1nc(SCC(=O)O)nc(-c2ccc(N3CCOCC3)cc2)n1 | 3.51
O=C(O)CSc1nc(SCC(=O)O)nc(N2CCOCC2)n1 | 3.63
